The values that follow come from patent publication US20220305003A1, “METHODS OF TREATING CANCER WITH AN INHIBITOR OF ZNF827” (CHILDREN'S MEDICAL RESEARCH INSTITUTE, priority 2019, published 2022).

Holding throughout (format): cell-based
In one data set the test system is U-2 OS cells. The data set is described as follows: IncuCyte live cell growth and apoptosis (Nucview488 caspase 3) assay. Here is the method:
Considering the effects of ZNF827 depletion on DNA replication and the cell cycle, the impact of ZNF827 on cell proliferation and cell viability was examined. Live cell assays were performed on U-2 OS cells in the IncuCyte® to monitor real-time cell proliferation by confluency and cell viability using Nucview488, a fluorescent reporting dye for caspase 3 activity that allows quantitative measurement of apoptotic activity. Cells were treated with topotecan or DMSO control for the first half of the assay and treatments were removed for the remaining time.
Cells were seeded at 20-30% in a 96-well black plate with clear bottom (3603, Corning) and left to adhere at 37° C. with 10% CO2 for at least 3 hours. The media was aspirated and replaced with phenol red free media supplemented 2 μM Nucview® 488 Caspase-3 substrate (Biotium) and placed into the IncuCyte® for baseline imaging without drug treatment. Topotecan 2 μg/mL or DMSO control was added to the wells, and incubated at 37° C. with 10% CO2 for 1 hour. The media was then aspirated, cells were washed carefully once with warm PBS, and the media replaced with phenol red free media supplemented 2 μM Nucview® 488 Caspase-3 substrate (Biotium). The plate was then placed back into IncuCyte®, imaged immediately post drug treatment, and then every 4 hours for 72 to 84 hours in the phase and green channels. Image analysis was performed with the IncuCyte® Zoom software. Cell growth was measured as % confluency over time, and apoptotic activity as green object confluence/area over time.

The next data set deals with ATR-CHK1 pathway. Description: Western blot of ATR downstream effectors (p-CHK1 S345, p-RPA2 S33, pCHK2). The following applies: U-2 OS. Here is the method:
Protein was extracted from 10^6 cells per sample by vigorous pipetting and incubation at room temperature for 30 minutes in 100 μL of EDTA-free 4× LDS buffer (106 mM Tris-Cl, 141 mM Tris-Base, 40% Glycerol, 2% LDS, 0.075% SERVA Blue G50) supplemented with 2.5% Benzonase® nuclease 25 U/μL (Novagen, Merck Millipore) and 2% beta-mercaptoethanol (Sigma). Following protein extraction, all samples were denatured at 90° C. for 15 minutes before resolving on NuPAGE® Novex® 4-12% Bis-Tris Mini Gels (Invitrogen) with 1×10^5 cells (10 μL) loaded per lane in NuPAGE® MES SDS running buffer (Invitrogen) at 200 V for 50 minutes. Gels were transferred onto a PVDF membrane (Immobilon-P, Millipore) in transfer buffer (190 mM glycine, 25 mM Tris and 10% methanol) at 100 V for 60 minutes. Membranes were stained with Ponceau-S for 30 minutes, de-stained then blocked for 1 hour at room temperature in 5% skim milk dissolved in PBS with 0.1% Tween-20 (PBST) or TBS with 0.1% Tween-20 (TBST) for phosphorylated proteins. Membranes were cut into appropriate segments based on the size markers, with each segment incubated with antibodies for proteins of interest diluted in 0.5% skim milk in PBST/TBST or 5% BSA overnight at 4° C. (Refer to Table 4 for the list of antibodies). Blots were then washed for 3×5 minutes in PBST/TBST followed by incubation for 1 hour at room temperature with appropriate secondary antibodies (See Table 5) diluted 1:5000 in 0.5% skim milk or 5% BSA in PBST/TBST. Blots were washed for 3×5 minutes in PBST/TBST before incubation with SuperSignal West Pico Chemiluminescent Substrate (ThermoFisher Scientific) for 5 minutes at room temperature. Blots were then exposed to a Luminescent Image Analyser (LAS-4000, Fujifilm).
To investigate the precise function of ZNF827 in the ATR pathway, the effect of ZNF827 depletion on the downstream effectors of ATR was examined. To activate ATR, U-2 OS cells were treated with DNA damage and replication stress inducing agents topotecan 2 μg/mL for 24 hours or aphidicolin 1 μM for 20 hours. […] Phosphorylation of CHK2 was not affected by ZNF827 depletion, further supporting that the role of ZNF827 in DNA damage and repair is independent of ATM (FIG. 6d).
On the technique in general: Immunoblotting shows a protein as a band on a membrane.

The next data set relates to HT1080 cells. The data set is described as follows: Cell cycle analysis by flow cytometry (propidium iodide). Here is the method:
For cell cycle analysis, cells were trypsinised, counted and collected by centrifugation at 1000 rpm for 5 minutes. 1×10^6 cells were resuspended in 0.5 mL PBS, then fixed in 5 mL of ice-cold 70% ethanol drop by drop whilst being gently vortexed. The cells were incubated on ice for 30 minutes then stored at −20° C. for 2-7 days until propidium iodide staining. Prior to propidium iodide (Sigma) staining, the ethanol fixed cells were centrifuged at 300×g for 6 minutes to remove ethanol, washed once with PBS, and resuspended in 0.5 mL PBS per 1×10^6 cells. The fixed cells were treated with 0.5 mg of RNase (Sigma) and 25 μg of propidium iodide at 37° C. for 30 minutes, and then allowed to return to room temperature in the dark for 10 minutes. Labelled cells were analysed using the BD FACSCanto Flow Cytometer (BD Biosciences) containing a blue air cooled 488 nm argon laser to excite propidium iodide. Between 10 000-15 000 events were collected at an approximate flow rate of 200 events/second. The forward scatter (FSC, size) and side scatter (SSC, internal granularity) of each cell was recorded. To discriminate and eliminate cell debris and doublets, the pulse area (FL2-A) was plotted against the pulse width (FL2-W). Doublets identified as cells with 4N DNA content and increasing pulse width were eliminated. A histogram displaying the cell counts against the FL2-A was used to calculate the percentage of cells in each cell cycle phase, as well as the percentage of non-viable cells. Data analysis was conducted using BD FACS Diva software (BD Bioscience).
(In general: Flow cytometry measures light scatter and fluorescence of single cells or particles in a stream.)

The mark [1] stands for this setting: agent alone (topotecan 2 μg/mL 1 hour then removed, or ZNF827 depletion with DMSO).
Setting [2] is: agent alone (topotecan 2 μg/mL, or ZNF827 depletion vs scrambled control).
The mark [3] stands for this setting: agent alone (topotecan 2 μg/mL 24 hours, aphidicolin 1 μM 20 hours, or siRNA knockdown in unchallenged cells).
Setting [4] is: agent alone (topotecan 2 μg/mL 1 hr, or 72 hr siRNA knockdown in unchallenged cells).

As for `CC[C@@]1(O)C(=O)OCc2c1cc1n(c2=O)Cc2cc3c(CN(C)C)c(O)ccc3nc2-1` [topotecan], the “cell proliferation (% confluency over time)” value with U-2 OS cells (setting [1]) is listed as “effectively inhibited cell growth”. Moreover, the “apoptotic activity (Nucview488 caspase 3)” value in the data set with U-2 OS cells (setting [2]) is listed as “much greater apoptotic activity”. Also, the “phosphorylation of CHK1 S345” value in the data set on ATR-CHK1 pathway (setting [3]) is “became phosphorylated at S345”. Further, the “phosphorylation of RPA S33” value with ATR-CHK1 pathway (topotecan 2 μg/mL 24 hours) was “phosphorylated at S33”. Also, the cell cycle profile result in the data set with HT1080 cells (setting [4]) is on record as “distinct G2/M arrest”.
Turning to “siZNF827: Stealth RNAi siRNA ZNF827HSS135819 duplex oligoribonucleotides (Invitrogen), SEQ ID NO: 12 and 13 (chain 1 GGGCAGUCUUCUGGCUGAGAAAUCA; chain 2 UGAUUUCUCAGCCAGAAGACUGCCC; listed as RNA, further chemistry not given here)”, the “cell proliferation (% confluency over time)” value in the data set on U-2 OS cells (ZNF827 depletion in conjunction with topotecan 2 μg/mL) is listed as “completely abrogated cell proliferation”; with U-2 OS cells (setting [1]), “reduced cell proliferation, surprisingly to a similar efficacy as topotecan”. Moreover, the “apoptotic activity (Nucview488 caspase 3)” value in the data set with U-2 OS cells (setting [2]) is reported as “significantly higher apoptotic activity compared to scrambled control”; in the data set with U-2 OS cells (combination of ZNF827 depletion and topotecan, compared with topotecan alone) it was “exceeded markedly”. The “phosphorylation of CHK1 S345” value with ATR-CHK1 pathway (72 hr siRNA knockdown in topotecan- or aphidicolin-treated cells) was “markedly suppressed”; in the data set with ATR-CHK1 pathway (setting [3]), “reduced baseline phosphorylation of CHK1 S345”. Besides, in the data set with ATR-CHK1 pathway (72 hr siRNA knockdown in topotecan-treated cells), the “phosphorylation of RPA S33” value is “markedly suppressed”. Moreover, in the data set on ATR-CHK1 pathway (72 hr siRNA knockdown, topotecan 2 μg/mL 24 hr or DMSO), the “phosphorylation of CHK2” value is “not affected”. The cell cycle profile result in the data set on HT1080 cells (72 hr siRNA knockdown in conjunction with topotecan 2 μg/mL 1 hr) is “conspicuous G1 arrest while reducing the G2/M arrest”; in the data set on HT1080 cells (setting [4]), “subtle increase in S phase cells accompanied by a reduction in G2/M cells”.
